ChEMBL document CHEMBL4002627, “Quinolidene based monocarbonyl curcumin analogues as promising antimycobacterial agents: Synthesis and molecular docking study” (Bioorg Med Chem Lett, 2017)
Values after ≈ are worked out from the molar mass of the structure shown.

Experiments:
Assay type in all cases: functional
[1] = system: Mycobacterium tuberculosis; assay: Antimycobacterial activity against dormant state of Mycobacterium bovis BCG by two fold dilution method; conditions: variant bovis BCG
[2] = system: Mycobacterium tuberculosis; assay: Antimycobacterial activity against dormant state of Mycobacterium bovis BCG assessed as growth inhibition at 30 ug/ml after 12 days by nitrate reductase assay relative to control; conditions: variant bovis BCG, 288 h, read-out: GI
[3] = system: Mycobacterium tuberculosis; assay: Antimycobacterial activity against dormant state of Mycobacterium bovis BCG assessed as growth inhibition at 10 ug/ml after 12 days by nitrate reductase assay relative to control; conditions: variant bovis BCG, 288 h, read-out: GI
[4] = system: Mycobacterium tuberculosis; assay: Antimycobacterial activity against dormant state of Mycobacterium bovis BCG assessed as growth inhibition at 3 ug/ml after 12 days by nitrate reductase assay relative to control; conditions: variant bovis BCG, 288 h, read-out: GI

Row | Structure (SMILES) | MIC50 [1] | MIC90 [1] | inhibition of growth at 30 µg/mL [2] | inhibition of growth at 10 µg/mL [3] | inhibition of growth at 3 µg/mL [4]
1 | COc1ccc2nc(Cl)c(/C=C3\CNC/C(=C\c4cc5cc(OC)ccc5nc4Cl)C3=O)cc2c1 | 11 µg/mL (≈ 21.7 µM) | 27.2 µg/mL (≈ 53.7 µM) | 97.2% | 48.4% | 28%
2 | CN1C/C(=C\c2cc3cc(F)ccc3nc2Cl)C(=O)/C(=C/c2cc3cc(F)ccc3nc2Cl)C1 | 25.6 µg/mL (≈ 51.6 µM) | > 30 µg/mL | 63.8% | 1% | 17.6%
3 | Cc1ccc2cc(/C=C3\CN(C)C/C(=C\c4cc5ccc(C)cc5nc4Cl)C3=O)c(Cl)nc2c1 | 5.8 µg/mL (≈ 11.9 µM) | 15.4 µg/mL (≈ 31.5 µM) | 90.4% | 89.4% | 23.2%
4 | O=C1/C(=C/c2cc3cc(Cl)ccc3nc2Cl)CNC/C1=C\c1cc2cc(Cl)ccc2nc1Cl | 19.7 µg/mL (≈ 38.2 µM) | > 30 µg/mL | 77.6% | 24.6% | 37.5%
5 | CN1C/C(=C\c2cc3cc(Cl)ccc3nc2Cl)C(=O)/C(=C/c2cc3cc(Cl)ccc3nc2Cl)C1 | 3.3 µg/mL (≈ 6.24 µM) | 21.5 µg/mL (≈ 40.6 µM) | 96.2% | 82.1% | 49%
6 | Cc1ccc2nc(Cl)c(/C=C3\CNC/C(=C\c4cc5cc(C)ccc5nc4Cl)C3=O)cc2c1 | > 30 µg/mL | > 30 µg/mL | 45.9% | 38.5% | 35.3%
7 | Cc1cccc2cc(/C=C3\CNC/C(=C\c4cc5cccc(C)c5nc4Cl)C3=O)c(Cl)nc12 | 2.5 µg/mL (≈ 5.27 µM) | > 30 µg/mL | 77.1% | 66.7% | 52.1%
8 | COc1ccc2nc(Cl)c(/C=C3\CN(C)C/C(=C\c4cc5cc(OC)ccc5nc4Cl)C3=O)cc2c1 | > 30 µg/mL | > 30 µg/mL | 31.9% | 13.3% | 22.9%
9 | Cc1ccc2nc(Cl)c(/C=C3\CN(C)C/C(=C\c4cc5cc(C)ccc5nc4Cl)C3=O)cc2c1 | > 30 µg/mL | > 30 µg/mL | 20.2% | 1% | -5.7%
10 | CO[C@H]1/C=C/O[C@@]2(C)Oc3c(C)c(O)c4c(O)c(c(/C=N/N5CCN(C)CC5)c(O)c4c3C2=O)NC(=O)/C(C)=C\C=C\[C@H](C)[C@H](O)[C@@H](C)[C@@H](O)[C@@H](C)[C@H](OC(C)=O)[C@@H]1C [RIFAMPIN] | 0.0043 µg/mL (≈ 0.00523 µM) | 0.0173 µg/mL (≈ 0.021 µM) | – | – | –
11 | Cc1ccc2cc(/C=C3\CNC/C(=C\c4cc5ccc(C)cc5nc4Cl)C3=O)c(Cl)nc2c1 | 12.9 µg/mL (≈ 27.2 µM) | > 30 µg/mL | 89.8% | 43.4% | 33.8%
12 | CN1C/C(=C\c2cc3ccccc3nc2Cl)C(=O)/C(=C/c2cc3ccccc3nc2Cl)C1 | 6 µg/mL (≈ 13 µM) | 7.3 µg/mL (≈ 15.9 µM) | 97.5% | 61.7% | 31.7%
13 | COc1ccc2cc(/C=C3\CN(C)C/C(=C\c4cc5ccc(OC)cc5nc4Cl)C3=O)c(Cl)nc2c1 | 5.8 µg/mL (≈ 11.1 µM) | 9.4 µg/mL (≈ 18.1 µM) | 92.4% | 95.6% | 22.3%
14 | O=C1/C(=C/c2cc3cc(F)ccc3nc2Cl)CNC/C1=C\c1cc2cc(F)ccc2nc1Cl | 2.1 µg/mL (≈ 4.35 µM) | 9.2 µg/mL (≈ 19.1 µM) | 96.1% | 93.4% | 61.9%
15 | Cc1cccc2cc(/C=C3\CN(C)C/C(=C\c4cc5cccc(C)c5nc4Cl)C3=O)c(Cl)nc12 | 20.8 µg/mL (≈ 42.6 µM) | > 30 µg/mL | 62.4% | 35.9% | 19.1%
16 | COc1ccc2cc(/C=C3\CNC/C(=C\c4cc5ccc(OC)cc5nc4Cl)C3=O)c(Cl)nc2c1 | 1.4 µg/mL (≈ 2.76 µM) | 2.7 µg/mL (≈ 5.33 µM) | 96.8% | 98.3% | 94.6%
17 | O=C1/C(=C/c2cc3ccccc3nc2Cl)CNC/C1=C\c1cc2ccccc2nc1Cl | 9.6 µg/mL (≈ 21.5 µM) | > 30 µg/mL | 79.7% | 50.6% | 38.3%
